Data: patent US20240279215A1 (Cytokinetics, Incorporated, priority 2022, published 2024)
pEC50: −log10 of the molar value.

Target: human NAMPT (Homo sapiens (Human), UniProt P43490)
Assay: NMN fluorescence biochemical assay (human recombinant NAMPT enzyme assay)
In short: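 Activation of recombinant human NAMPT (6 nM) was tested with 2.5 mM ATP, 20 μM PRPP and 150 μM nicotinamide in 50 mM HEPES pH 7.2 for 60 min at ambient temperature. NMN was derivatized with acetophenone/KOH/formic acid and read by fluorescence (355/460 nm) after 40 min.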

Chain of human NAMPT (P43490 whole entry): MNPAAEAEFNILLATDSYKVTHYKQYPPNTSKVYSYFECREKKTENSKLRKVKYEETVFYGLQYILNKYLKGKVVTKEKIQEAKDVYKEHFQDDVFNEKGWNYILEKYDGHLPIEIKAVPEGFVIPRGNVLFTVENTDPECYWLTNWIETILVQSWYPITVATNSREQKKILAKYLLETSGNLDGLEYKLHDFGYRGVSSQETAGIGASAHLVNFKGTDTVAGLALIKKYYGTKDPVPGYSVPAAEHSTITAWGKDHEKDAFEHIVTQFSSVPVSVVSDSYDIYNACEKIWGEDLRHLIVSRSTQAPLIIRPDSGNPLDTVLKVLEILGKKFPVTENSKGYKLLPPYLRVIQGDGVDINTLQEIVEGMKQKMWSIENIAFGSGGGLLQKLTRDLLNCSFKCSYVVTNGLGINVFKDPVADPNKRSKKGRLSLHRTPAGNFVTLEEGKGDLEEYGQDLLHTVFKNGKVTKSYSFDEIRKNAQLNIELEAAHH

Compound | AC1.4 Human [µM] | pEC50
CC1(C)CCN1C(=O)Cc1ccc(NC(=O)OCc2ccc(Cl)cc2)cc1 [Compound 183, (4-chlorophenyl)methyl N-{4-[2-(2,2-dimethylazetidin-1-yl)-2-oxoethyl]phenyl}carbamate] | 1.57 | 4.82
COc1cnn(C)c1C(=O)N(C)Cc1ccc(NC(=O)OCc2ccc(Cl)cc2)cc1 [Compound 253, (4-chlorophenyl)methyl N-(4-{[1-(4-methoxy-2-methylpyrazol-3-yl)-N-methylformamido]methyl}phenyl)carbamate] | 2.62 | 4.75
CN(C)C(=O)N1CCC(Cc2ccc(NC(=O)OCc3cnco3)cc2)CC1 [Compound 30, oxazol-5-ylmethyl (4-((1-(dimethylcarbamoyl)piperidin-4-yl)methyl)phenyl)carbamate] | 0.37 | 4.60
C[C@H](NC(=O)c1c(F)cncc1F)c1ccc(NC(=O)OCc2ccc(Cl)cc2)cc1 [Compound 57, (4-chlorophenyl)methyl N-{4-[(1S)-1-[(3,5-difluoropyridin-4-yl)formamido]ethyl]phenyl}carbamate] | 0.54 | 5.89
O=C(Cn1cccn1)NCc1ccc(NC(=O)OCc2ccc(Cl)cc2)cc1 [Compound 334, (4-chlorophenyl)methyl N-(4-{[2-(pyrazol-1-yl)acetamido]methyl}phenyl)carbamate] | 9.87 | 5.03
O=C(Nc1ccc(CNC(=O)N2CCN(CC(F)F)CC2)cc1)OCc1ccc(Cl)cc1 [Compound 258, (4-chlorophenyl)methyl N-(4-{[4-(2,2-difluoroethyl)piperazine-1-carbonylamino]methyl}phenyl)carbamate] | 2.74 | 5.12
Cc1ccc(C(=O)N(C)Cc2ccc(NC(=O)OCc3ccc(Cl)cc3)cc2)cn1 [Compound 104, (4-chlorophenyl)methyl N-(4-{[N-methyl-1-(6-methylpyridin-3-yl)formamido]methyl}phenyl)carbamate] | 0.85 | 5.30
CC(C)c1ccc(C(=O)NCc2ccc(NC(=O)OCc3ccc(Cl)cc3)cc2)cn1 [Compound 234, (4-chlorophenyl)methyl N-(4-{[(6-isopropylpyridin-3-yl)formamido]methyl}phenyl)carbamate] | 2.19 | 5.47
Cc1ncc(C(=O)N(C)Cc2ccc(NC(=O)OCc3ccc(Cl)cc3)cc2)o1 [Compound 85, (4-chlorophenyl)methyl N-(4-{[N-methyl-1-(2-methyl-1,3-oxazol-5-yl)formamido]methyl}phenyl)carbamate] | 0.67 | 5.20
CN(C)C(=O)N1CCC(Cc2ccc(NC(=O)OCc3cnco3)cc2)C2CC21 (stereo not shown) [Compound 454, oxazol-5-ylmethyl (4-((2-(dimethylcarbamoyl)-2-azabicyclo[4.1.0]heptan-5-yl)methyl)phenyl)carbamate] | 0.14 | 4.79
O=C(Nc1ccc(CN2CCN(c3cnccn3)CC2)cc1)OCc1ccc(Cl)cc1 [Compound 24, (4-chlorophenyl)methyl N-(4-{[4-(pyrazin-2-yl)piperazin-1-yl]methyl}phenyl)carbamate] | 0.34 | 5.73
C[C@H](NC(=O)c1cncc(F)c1)c1ccc(NC(=O)OCc2ccc(Cl)cc2)cc1 [Compound 159, (4-chlorophenyl)methyl N-{4-[(1S)-1-[(5-fluoropyridin-3-yl)formamido]ethyl]phenyl}carbamate] | 1.33 | 5.37
O=C(Nc1ccc(CC2CCN(C3COC3)C3CC23)cc1)OCc1cnco1 (stereo not shown) [Compound 455, oxazol-5-ylmethyl (4-((2-(oxetan-3-yl)-2-azabicyclo[4.1.0]heptan-5-yl)methyl)phenyl)carbamate] | 0.84 | 4.49
COC(=O)N1CCC2(CC(Cc3ccc(NC(=O)OCc4cnco4)cc3F)C2)C1 (stereo not shown) [Compound 371, methyl 2-(2-fluoro-4-(((oxazol-5-ylmethoxy)carbonyl)amino)benzyl)-6-azaspiro[3.4]octane-6-carboxylate] | 0.27 | 5.34
NC(=O)N1CCC(Cc2ccc(NC(=O)OCc3ccc(Cl)cc3)cc2)CC1 [Compound 62, 4-chlorobenzyl (4-((1-carbamoylpiperidin-4-yl)methyl)phenyl)carbamate] | 0.57 | 5.58
CNS(=O)(=O)N1CCC(Cc2ccc(NC(=O)OCc3ccc(Cl)cc3)cc2)CC1 [Compound 17, 4-chlorobenzyl (4-((1-(N-methylsulfamoyl)piperidin-4-yl)methyl)phenyl)carbamate] | 0.25 | 6.05
Cc1cc(C)c(C(=O)NCc2ccc(NC(=O)OCc3ccc(Cl)cc3)cc2)cn1 [Compound 165] | 1.38 | 5.12
COCCn1nccc1C(=O)N[C@@H](C)c1ccc(NC(=O)OCc2ccc(Cl)cc2)cc1 [Compound 56, (4-chlorophenyl)methyl N-{4-[(1S)-1-{[2-(2-methoxyethyl)pyrazol-3-yl]formamido}ethyl]phenyl}carbamate] | 0.53 | 5.55

Compound | AC1.4 Human [µM] | pEC50
O=C(Nc1ccc(Cc2ccncc2)cc1)OCc1cnco1 [Compound 153, oxazol-5-ylmethyl (4-(pyridin-4-ylmethyl)phenyl)carbamate] | 1.27 | 4.47
CS(=O)(=O)N1CCC(c2ccc(NC(=O)OCc3cnco3)cc2F)CC1 [Compound 415, oxazol-5-ylmethyl (3-fluoro-4-(1-(methylsulfonyl)piperidin-4-yl)phenyl)carbamate] | 0.18 | 4.92
O=C(Cc1ccc(NC(=O)OCc2ccc(Cl)cc2)cc1)N[C@H]1CC[C@H](OC(F)(F)F)CC1 [Compound 338, (4-chlorophenyl)methyl N-[4-({[(1r,4r)-4-(trifluoromethoxy)cyclohexyl]carbamoyl}methyl)phenyl]carbamate] | 10.44 | 4.74
O=C(Nc1ccc([C@@H]2CCCN(C3COC3)C2)cc1)OCc1cnco1 [Compound 380, oxazol-5-ylmethyl (S)-(4-(1-(oxetan-3-yl)piperidin-3-yl)phenyl)carbamate] | 0.84 | 4.38
C[C@H]1CCN(C(=O)Cc2ccc(NC(=O)OCc3ccc(Cl)cc3)cc2)C1 [Compound 244, (4-chlorophenyl)methyl N-(4-{2-[(3S)-3-methylpyrrolidin-1-yl]-2-oxoethyl}phenyl)carbamate] | 2.39 | 5.25
COCCn1nccc1C(=O)N(C)Cc1ccc(NC(=O)OCc2ccc(Cl)cc2)cc1 [Compound 77, (4-chlorophenyl)methyl N-[4-({1-[2-(2-methoxyethyl)pyrazol-3-yl]-N-methylformamido}methyl)phenyl]carbamate] | 0.65 | 5.78
COCCN1CCC(Cc2ccc(NC(=O)OCc3cnco3)cc2)CC1 [Compound 293, oxazol-5-ylmethyl (4-((1-(2-methoxyethyl)piperidin-4-yl)methyl)phenyl)carbamate] | 4.16 | 4.73
COC(=O)N1CCC(Cc2ccc(NC(=O)OCc3cnco3)cc2)C2CC21 (stereo not shown) [Compound 456, methyl 5-(4-(((oxazol-5-ylmethoxy)carbonyl)amino)benzyl)-2-azabicyclo[4.1.0]heptane-2-carboxylate] | 0.23 | 4.75
O=C(Nc1ccc(C2CCN(C3COC3)CC2)cc1)OCc1cnco1 [Compound 313, 1,3-oxazol-5-ylmethyl N-{4-[1-(oxetan-3-yl)piperidin-4-yl]phenyl}carbamate] | 5.55 | 4.59
CC(=O)N1C2CCC1CC(Cc1ccc(NC(=O)OCc3cnco3)cc1)C2 (stereo not shown) [Compound 410, oxazol-5-ylmethyl (4-((8-acetyl-8-azabicyclo[3.2.1]octan-3-yl)methyl)phenyl)carbamate] | 0.13 | 5.38
COC(=O)N1CCC(Cc2ccc(NC(=O)OCc3cnco3)cc2)CC12CC2 (stereo not shown) [Compound 443, methyl 7-(4-(((oxazol-5-ylmethoxy)carbonyl)amino)benzyl)-4-azaspiro[2.5]octane-4-carboxylate] | 0.22 | 5.19
O=C(Cc1cnoc1)NCc1ccc(NC(=O)OCc2ccc(Cl)cc2)cc1 [Compound 330, (4-chlorophenyl)methyl N-(4-{[2-(1,2-oxazol-4-yl)acetamido]methyl}phenyl)carbamate] | 8.66 | 4.33
CC(C)Cn1nccc1C(=O)N[C@@H](C)c1ccc(NC(=O)OCc2ccc(Cl)cc2)cc1 [Compound 129, (4-chlorophenyl)methyl N-{4-[(1S)-1-{[2-(2-methylpropyl)pyrazol-3-yl]formamido}ethyl]phenyl}carbamate] | 1.03 | 5.65
Cc1cnoc1C(=O)N[C@@H](C)c1ccc(NC(=O)OCc2ccc(Cl)cc2)cc1 [Compound 142, (4-chlorophenyl)methyl N-{4-[(1S)-1-[(4-methyl-1,2-oxazol-5-yl)formamido]ethyl]phenyl}carbamate] | 1.17 | 5.13
Cc1cc(C(=O)NCc2ccc(NC(=O)OCc3ccc(Cl)cc3)cc2)ccn1 [Compound 173, (4-chlorophenyl)methyl N-(4-{[(2-methylpyridin-4-yl)formamido]methyl}phenyl)carbamate] | 1.46 | 5.36
CC(=O)N1CCC(Cc2ccc(NC(=O)OCc3cnco3)cc2F)CC1 [Compound 451, oxazol-5-ylmethyl (4-((1-acetylpiperidin-4-yl)methyl)-3-fluorophenyl)carbamate] | 0.16 | 5.11
CCS(=O)(=O)N1CCC2(CC(Cc3ccc(NC(=O)OCc4cnco4)cc3F)C2)C1 (stereo not shown) [Compound 369, oxazol-5-ylmethyl (3-fluoro-4-((6-(ethylsulfonyl)-6-azaspiro[3.4]octan-2-yl)methyl)phenyl)carbamate] | 0.16 | 5.36
